Experiments:
MCF-7 (breast cancer) = assay: MTT cell viability assay, MCF-7; format: cell-based, human; conditions: for IC50: Homo sapiens, MCF7, 72 h, MTT assay, 72 h of incubation
Method: (§1) Compounds 20–162 were evaluated in vitro for their effects on the viability of three cancer cell lines: HCT-116 (colon cancer), MCF-7 (breast cancer) and HeLa (cervical cancer), as well as the non-cancerous keratinocyte cell line (HaCaT). […] Analysis was performed using an MTT assay after 72 h of incubation.
(§2) All chemicals, if not stated otherwise, were obtained from Sigma–Aldrich (St. Louis, MO, USA). The HCT-116 cell line was purchased from ATCC (ATCC-No: CCL-247), while the MCF-7, HeLa and HaCaT cell lines were purchased from Cell Lines Services (Eppelheim, Germany). Cells were cultured in Dulbecco’s modified Eagle’s medium (DMEM) supplemented with 10% fetal bovine serum, 2 mM glutamine, 100 units/mL penicillin and 100 µg/mL streptomycin. Cultures were maintained in a humidified atmosphere with 5% carbon dioxide at 37 °C in an incubator (Heraceus, HeraCell).
(§3) Cell viability was examined using the MTT [3-(4,5-dimethylthiazol-2-yl)-2,5-diphenyltetrazolium bromide] assay. Cells were seeded in 96-well plates at a density of 3 × 10^3 cells/well and treated for 72 h with the tested compounds in the concentration range of 1–100 µM. Then, MTT (0.5 mg/mL) was added to the medium and cells were further incubated for 2 h at 37 °C. In the next stage, cells were lysed with DMSO and the absorbance of the formazan solution was measured at 550 nm with a plate reader (1420 multilabel counter, Victor, Jügesheim, Germany). The experiment was performed in triplicate. Values are expressed as the mean ± SD of at least three independent experiments. Cisplatin was used as a positive control.

[1] = tested on: HaCaT (human keratinocyte cell line); assay: MTT cell viability assay, non-cancerous HaCaT; format: cell-based; conditions: Homo sapiens, HaCaT, 72 h, 72 h of incubation, non-cancerous keratinocytes
Method: as §1, §2, §3

HCT-116 (colon cancer) = assay: MTT cell viability assay, HCT-116; format: cell-based, human; conditions: for IC50: MTT assay, 72 h of incubation
Method: (§4) Analysis was performed using an MTT assay after 72 h of incubation.
as §2
as §3, with “experiments.” for “experiments. Cisplatin was used as a positive control.”

HeLa (cervical cancer) = assay: MTT cell viability assay, HeLa; format: cell-based, human; conditions: for IC50: Homo sapiens, HeLa, MTT assay, 72 h of incubation
Method: as §4, §2
as §3, with “experiments.” for “experiments. Cisplatin was used as a positive control.”

SMILES	IC50 (MCF-7 (breast cancer)) [µM]	IC50 [1] [µM]	IC50 (HCT-116 (colon cancer); Homo sapiens, HCT-116, 72 h) [µM]	IC50 (HeLa (cervical cancer)) [µM]	Selectivity Index (SI) MCF-7 (MCF-7 (breast cancer); IC50 value toward HaCaT cells/IC50 value toward MCF-7)	Selectivity Index (SI) HCT-116 (HCT-116 (colon cancer); IC50 value toward HaCaT cells/IC50 value toward HCT-116)	IC50 (HCT-116 (colon cancer)) [µM]	Selectivity Index (SI) HeLa (HeLa (cervical cancer); IC50 value toward HaCaT cells/IC50 value toward HeLa)
Cc1cc(S(=O)(=O)N=C2NCCN2Cc2ccccc2)c(SCc2nc(N)nc(N3CCN(c4ccccc4)CC3)n2)cc1Cl [Compound 57]	8 ± 0.2	48 ± 2	8 ± 0.1	102 ± 2				
Cc1cc(S(=O)(=O)N=C2NCCN2Cc2ccccc2)c(SCc2nc(N)nc(N3CCN(c4ccc(F)cc4)CC3)n2)cc1Cl [Compound 58]	17 ± 1	29 ± 1	11 ± 0.3	14 ± 2				
Cc1cc(S(=O)(=O)N=C2NCCN2Cc2ccccc2)c(SCc2nc(N)nc(N3CCN(c4ccccc4F)CC3)n2)cc1Cl [Compound 59]	18 ± 1	30 ± 1	13 ± 0.3	15 ± 1				
Cc1cc(S(=O)(=O)N=C2NCCN2Cc2ccccc2)c(SCc2nc(N)nc(N3CCN(c4ccc(C(F)(F)F)cc4)CC3)n2)cc1Cl [Compound 60]	14 ± 0.3	23 ± 1	8 ± 0.3	9 ± 0.5				
Cc1cc(S(=O)(=O)N=C2NCCN2Cc2ccccc2)c(SCc2nc(N)nc(N3CCN(c4cccc(C(F)(F)F)c4)CC3)n2)cc1Cl [Compound 61]	9 ± 0.3	21 ± 1	6.5 ± 0.1	10 ± 0.2				
Cc1cc(S(=O)(=O)N=C2NCCN2Cc2ccccc2)c(SCc2nc(N)nc(N3CCN(c4cccc(Cl)c4)CC3)n2)cc1Cl [Compound 63]	9 ± 0.5	24 ± 1	7 ± 0.1	12 ± 0.5				
Cc1cc(S(=O)(=O)N=C2NCCN2Cc2ccccc2)c(SCc2nc(N)nc(N3CCN(c4ccc(Cl)c(Cl)c4)CC3)n2)cc1Cl [Compound 64]	14 ± 0.5	28 ± 1	11 ± 0.4	15 ± 1				
Cc1cc(S(=O)(=O)N=C2NCCN2Cc2ccccc2)c(SCc2nc(N)nc(N3CCN(c4ccc(F)c(Cl)c4)CC3)n2)cc1Cl [Compound 65]	11 ± 0.5	23 ± 1	7 ± 0.2	11 ± 0.3				
COc1ccccc1N1CCN(c2nc(N)nc(CSc3cc(Cl)c(C)cc3S(=O)(=O)N=C3NCCN3Cc3ccccc3)n2)CC1 [Compound 66]	29 ± 1	36 ± 2	12 ± 0.4	20 ± 1				
Cc1cc(S(=O)(=O)N=C2NCCN2Cc2ccccc2)c(SCc2nc(N)nc(N3CCN(Cc4ccccc4)CC3)n2)cc1Cl [Compound 68]	16 ± 0.5	32 ± 2	16 ± 0.5	14 ± 0.5				
Cc1cc(S(=O)(=O)N=C2NCCN2Cc2ccccc2)c(SCc2nc(N)nc(N3CCC(Cc4ccccc4)CC3)n2)cc1Cl [Compound 72]	9 ± 0.5	28 ± 1	6.5 ± 0.1	17 ± 0.5				
Cc1cc(S(=O)(=O)N=C2NCCN2Cc2ccccc2)c(SCc2nc(N)nc(N3CC=C(c4ccc(F)cc4)CC3)n2)cc1Cl [Compound 73]	7.5 ± 0.3	29 ± 1	< 6	14 ± 0.3	3.8	5.5	5.2 ± 0.2	2.0
Cc1cc(S(=O)(=O)N=C2NCCN2Cc2cccc3ccccc23)c(SCc2nc(N)nc(N3CCc4ccccc43)n2)cc1Cl [Compound 74]	12 ± 0.6	81 ± 4	44 ± 2	13 ± 0.5				
Cc1cc(S(=O)(=O)N=C2NCCN2Cc2cccc3ccccc23)c(SCc2nc(N)nc(Nc3ccccc3)n2)cc1Cl [Compound 75]	8 ± 0.5	110 ± 5	30 ± 2	77 ± 5				
Cc1cc(S(=O)(=O)N=C2NCCN2Cc2cccc3ccccc23)c(SCc2nc(N)nc(N(C)c3ccc(Cl)cc3)n2)cc1Cl [Compound 76]	25 ± 1	99 ± 4	46 ± 1	28 ± 2				
Cc1cc(S(=O)(=O)N=C2NCCN2Cc2cccc3ccccc23)c(SCc2nc(N)nc(N3CCN(c4ccccc4)CC3)n2)cc1Cl [Compound 77]	29 ± 1	220 ± 11	40 ± 1	110 ± 5				
Cc1cc(S(=O)(=O)N=C2NCCN2Cc2cccc3ccccc23)c(SCc2nc(N)nc(N3CCN(c4ccc(C(F)(F)F)cc4)CC3)n2)cc1Cl [Compound 78]	11 ± 0.5	280 ± 14	19.5 ± 0.6	130 ± 8				

SMILES	IC50 (MCF-7 (breast cancer)) [µM]	IC50 [1] [µM]	IC50 (HCT-116 (colon cancer); Homo sapiens, HCT-116, 72 h) [µM]	IC50 (HeLa (cervical cancer)) [µM]	Selectivity Index (SI) MCF-7 (MCF-7 (breast cancer); IC50 value toward HaCaT cells/IC50 value toward MCF-7)	Selectivity Index (SI) HCT-116 (HCT-116 (colon cancer); IC50 value toward HaCaT cells/IC50 value toward HCT-116)	IC50 (HCT-116 (colon cancer)) [µM]	Selectivity Index (SI) HeLa (HeLa (cervical cancer); IC50 value toward HaCaT cells/IC50 value toward HeLa)
Cc1cc(S(=O)(=O)N=C2NCCN2Cc2cccc3ccccc23)c(SCc2nc(N)nc(N3CCN(Cc4ccccc4)CC3)n2)cc1Cl [Compound 81]	8 ± 0.5	240 ± 12	8.4 ± 0.3	63 ± 1				
Cc1cc(S(=O)(=O)N=C2NCCN2Cc2ccc(F)cc2)c(SCc2nc(N)nc(N3CCOCC3)n2)cc1Cl [Compound 82]	12 ± 0.1	54 ± 2	19 ± 0.8	30 ± 1				
Cc1cc(S(=O)(=O)N=C2NCCN2Cc2ccc(F)cc2)c(SCc2nc(N)nc(N3CCc4ccccc43)n2)cc1Cl [Compound 83]	14 ± 1	32 ± 1	10 ± 0.5	12 ± 3				
Cc1cc(S(=O)(=O)N=C2NCCN2Cc2ccc(F)cc2)c(SCc2nc(N)nc(N3CCCc4ccccc43)n2)cc1Cl [Compound 84]	7 ± 0.1	27 ± 1	9 ± 0.5	15 ± 0.6				
Cc1cc(S(=O)(=O)N=C2NCCN2Cc2ccc(F)cc2)c(SCc2nc(N)nc(Nc3ccccc3)n2)cc1Cl [Compound 85]	23 ± 1	38 ± 1	15 ± 0.5	21 ± 4				
Cc1cc(S(=O)(=O)N=C2NCCN2Cc2ccc(F)cc2)c(SCc2nc(N)nc(Nc3ccc(F)cc3)n2)cc1Cl [Compound 86]	15 ± 0.2	35 ± 2	13 ± 0.5	16 ± 0.2				
Cc1cc(S(=O)(=O)N=C2NCCN2Cc2ccc(F)cc2)c(SCc2nc(N)nc(Nc3ccc(C(F)(F)F)cc3)n2)cc1Cl [Compound 87]	7 ± 0.3	34 ± 1	10 ± 0.4	15 ± 1				
COc1ccc(Nc2nc(N)nc(CSc3cc(Cl)c(C)cc3S(=O)(=O)N=C3NCCN3Cc3ccc(F)cc3)n2)cc1 [Compound 88]	31 ± 1	43 ± 2	17 ± 0.5	25 ± 2				
Cc1cc(S(=O)(=O)N=C2NCCN2Cc2ccc(F)cc2)c(SCc2nc(N)nc(N(C)c3ccccc3)n2)cc1Cl [Compound 89]	18 ± 1	31 ± 1	14 ± 0.7	17 ± 0.6				
Cc1cc(S(=O)(=O)N=C2NCCN2Cc2ccc(F)cc2)c(SCc2nc(N)nc(N(C)c3ccc(Cl)cc3)n2)cc1Cl [Compound 90]	17 ± 1	30 ± 2	12 ± 0.2	15 ± 0.6				
Cc1cc(S(=O)(=O)N=C2NCCN2Cc2ccc(F)cc2)c(SCc2nc(N)nc(N3CCN(C)CC3)n2)cc1Cl [Compound 91]	13 ± 0.4	54 ± 2	20 ± 1	34 ± 2				
Cc1cc(S(=O)(=O)N=C2NCCN2Cc2ccc(F)cc2)c(SCc2nc(N)nc(N3CCN(c4ccccc4)CC3)n2)cc1Cl [Compound 92]	8 ± 0.4	18 ± 1	7 ± 0.3	8 ± 0.5				
Cc1cc(S(=O)(=O)N=C2NCCN2Cc2ccc(F)cc2)c(SCc2nc(N)nc(N3CCN(c4ccc(F)cc4)CC3)n2)cc1Cl [Compound 93]	7 ± 0.5	18 ± 1	7 ± 0.3	8 ± 0.4				
Cc1cc(S(=O)(=O)N=C2NCCN2Cc2ccc(F)cc2)c(SCc2nc(N)nc(N3CCN(c4ccccc4F)CC3)n2)cc1Cl [Compound 94]	14 ± 0.5	25 ± 1	9 ± 0.2	12 ± 1				
Cc1cc(S(=O)(=O)N=C2NCCN2Cc2ccc(F)cc2)c(SCc2nc(N)nc(N3CCN(c4ccc(C(F)(F)F)cc4)CC3)n2)cc1Cl [Compound 95]	7 ± 0.1	18 ± 1	7 ± 0.3	8 ± 0.4				
Cc1cc(S(=O)(=O)N=C2NCCN2Cc2ccc(F)cc2)c(SCc2nc(N)nc(N3CCN(c4ccc(Cl)cc4)CC3)n2)cc1Cl [Compound 96]	6 ± 0.2	22 ± 1	6 ± 0.3	9 ± 0.3				

Reference: paper PMC9267128, “New 2-[(4-Amino-6-N-substituted-1,3,5-triazin-2-yl)methylthio]-N-(imidazolidin-2-ylidene)-4-chloro-5-methylbenzenesulfonamide Derivatives, Design, Synthesis and Anticancer Evaluation” (International Journal of Molecular Sciences, 2022)
